In ChEMBL document CHEMBL5543064, “Interleukin-1β converting enzyme (ICE): A comprehensive review on discovery and development of caspase-1 inhibitors” (Eur J Med Chem, 2023):

Tests used:
Caspase-8 [1] = target: T1, Caspase-8 (Homo sapiens, UniProt Q14790); assay: Binding affinity to Caspase-8 (unknown origin) using Ac-IETD-AFC as substrate assessed as inhibition constant
Caspase-1 [2] = target: T2, Caspase-1 (Homo sapiens, UniProt P29466); assay: Inhibition of Interleukin-1beta-converting enzyme (unknown origin)
T2 sequence (P29466 whole entry): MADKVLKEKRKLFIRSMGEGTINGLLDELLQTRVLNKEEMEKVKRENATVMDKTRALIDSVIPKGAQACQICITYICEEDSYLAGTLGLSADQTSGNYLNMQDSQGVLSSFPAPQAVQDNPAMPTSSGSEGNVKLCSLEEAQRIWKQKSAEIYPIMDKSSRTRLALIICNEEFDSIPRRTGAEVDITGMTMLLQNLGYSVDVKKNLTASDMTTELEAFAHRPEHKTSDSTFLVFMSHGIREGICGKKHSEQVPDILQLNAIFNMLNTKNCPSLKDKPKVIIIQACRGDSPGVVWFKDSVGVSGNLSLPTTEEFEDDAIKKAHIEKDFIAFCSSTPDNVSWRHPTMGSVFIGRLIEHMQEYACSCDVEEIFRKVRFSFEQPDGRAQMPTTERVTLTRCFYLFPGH

Caspase-1 [3] = target: T2, Caspase-1; assay: Inhibition of caspase-1 (unknown origin) using Ac-Tyr-Val-Ala-Asp-AFC as fluorogenic substrate by fluorescence based analysis
Caspase-1 [4] = target: T2, Caspase-1; assay: Inhibition of Caspase-1 (unknown origin)
Caspase-1 [5] = target: T2, Caspase-1; assay: Binding affinity to caspase-1 (unknown origin) assessed as inhibition constant
Caspase-1 [6] = target: T2, Caspase-1; assay: Inhibition of N-terminal His-tagged Caspase-1 (unknown origin)
[7] = target: Interleukin-1 beta (Homo sapiens) (UniProt P01584); assay: Inhibition of human Interleukin-1beta at 30 uM relative to control
Interleukin-1 beta (Homo sapiens), sequence (P01584 117-269 limits assumed): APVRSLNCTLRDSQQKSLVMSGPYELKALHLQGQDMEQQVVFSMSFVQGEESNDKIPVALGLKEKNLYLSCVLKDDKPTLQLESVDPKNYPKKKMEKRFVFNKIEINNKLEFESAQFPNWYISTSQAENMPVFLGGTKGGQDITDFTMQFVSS

Caspase-1 (Homo sapiens) = Caspase-1 (Homo sapiens) (UniProt P29466); assay: Binding affinity to caspase-1 (unknown origin) assessed as inhibition constant
[8] = Toxicity in Sprague-Dawley rat assessed as […] mortality at 12.5 micromol/kg; conditions: in vivo, 12.5 µmol/kg
Caspase-1 [9] = target: T2, Caspase-1; assay: Binding affinity to human caspase-1 assessed as apparent inhibition constant; conditions: read-out: Ki(app)
Caspase-1 [10] = target: T2, Caspase-1; assay: Binding affinity to N-terminal His-tagged Caspase-1 (unknown origin) assessed as inhibition constant
Caspase-8 [11] = target: T1, Caspase-8; assay: Inhibition of caspase-8 (unknown origin) by fluorescence based analysis
[12] = Oral bioavailability in rat; assay type: ADME, organism-based; conditions: in vivo
Caspase-1 [13] = target: T2, Caspase-1; assay: Inhibition of caspase-1 (unknown origin) by fluorescence based analysis

T1 sequence (Q14790 217-374 limits assumed): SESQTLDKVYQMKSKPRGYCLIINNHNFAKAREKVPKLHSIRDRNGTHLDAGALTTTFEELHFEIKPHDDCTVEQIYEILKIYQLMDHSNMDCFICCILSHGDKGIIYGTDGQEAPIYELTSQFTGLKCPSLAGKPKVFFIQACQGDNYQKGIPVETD
T1 sequence (Q14790 385-479 limits assumed): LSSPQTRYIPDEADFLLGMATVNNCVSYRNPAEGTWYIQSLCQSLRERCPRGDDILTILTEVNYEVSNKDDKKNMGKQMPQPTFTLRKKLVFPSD

Compound `CC(C)[C@H](NC(=O)CCc1ccccc1)C(=O)N[C@@H](C)C(=O)N[C@@H](CC(=O)O)C(=O)CCCc1ccccc1` has a Ki (Caspase-8 [1]) of 100 nM.
`CC1=C(O)C(=O)C=C2C1=CC=C1[C@@]2(C)CC[C@@]2(C)[C@@H]3C[C@](C)(C(=O)O)CC[C@]3(C)CC[C@]12C` [CELASTROL] showed an IC50 (Caspase-1 [2]) of 40 nM.
`CCCCN(CC(=O)N[C@@H](CC(=O)O)C(=O)COc1ccccc1)C(=O)[C@@H](NC(=O)c1ccc2ccccc2c1)C(C)C` showed an IC50 (Caspase-1 [3]) of 22 nM.
Compound `Cc1cc(Oc2ccccc2S(=O)(=O)N[C@H](C=O)CC(=O)O)ccc1C(C)C` has an IC50 (Caspase-1 [4]) of 1000 nM.
`CC(C)[C@H](NC(=O)c1ccc2ccccc2c1)C(=O)N(CCCn1ccnc1)CC(=O)N[C@@H](CC(=O)O)C(=O)COc1ccccc1` showed an IC50 (Caspase-1 [3]) of 13 nM.
`O=C(CN1C(=O)[C@H](NC(=O)c2ccccc2)CN(C(=O)CCc2ccccc2)c2ccccc21)N[C@H]1CC(=O)OC1O` (some centres not stated) gave a Ki (Caspase-1 [5]) of 850 nM.
`O=C(O)CC(NC(=O)C(NC(=O)OCc1ccccc1)c1ccccc1)C(=O)COC(=O)c1ccccc1` (configuration not stated) gave an IC50 (Caspase-1 [6]) of 820 nM.
For `CCOC(=O)c1ccc(-n2sc(-c3ccccc3Cl)cc2=O)cc1`, the inhibition [7] was 87%.
`COC(=O)c1ccc(NC(=O)CCCCC(=O)Nc2ccc3c(c2)C(=O)C(=O)NC3=O)cc1` gave an IC50 (Caspase-1 [2]) of 19 nM.
Work on `Cc1cccc(S(=O)(=O)N[C@H](C=O)CC(=O)O)c1-c1ccccc1` yielded an IC50 (Caspase-1 [4]) of 34400 nM.
`O=CC(CC(=O)O)NC(=O)Cn1c(Cc2ccccc2)ccc(NC(=O)CCc2ccccc2)c1=O` (single isomer, unassigned) gave a Ki (Caspase-1 (Homo sapiens)) of 150 nM.
With `O=C[C@H](CC(=O)O)NC(=O)Cn1c(-c2ccccc2)ccc(NC(=O)CCc2ccccc2)c1=O` the Ki (Caspase-1 (Homo sapiens)) was 900 nM.
In the case of `CC1=C(O)C(=O)C=C2C1=CC=C1[C@@]2(C)CC[C@@]2(C)[C@@H]3C[C@@H](C)C(=O)C[C@]3(C)CC[C@]12C` [TINGENONE], the IC50 (Caspase-1 [2]) is reported as 58 nM.
Work on `C[C@H](NC(=O)C(NC(=O)c1cc2ccccc2[nH]1)C(=O)O)C(=O)N[C@H](CN=[N+]=[N-])CC(=O)O` (some centres not stated) yielded an IC50 (Caspase-1 [4]) of 75 nM.
Work on `CC(C(=O)NC(C=O)CC(=O)O)n1c(Cc2ccccc2)ccc(NC(=O)CCc2ccccc2)c1=O` (single isomer, unassigned) yielded a Ki (Caspase-1 (Homo sapiens)) of 970 nM.
Work on `CC(C)C(NC(=O)c1ccc2ccccc2c1)C(=O)N[C@@H](C)C(=O)N[C@H](CN=[N+]=[N-])CC(=O)O` (some centres not stated) yielded an IC50 (Caspase-1 [4]) of 4.6 nM.
`O=C[C@H](CC(=O)O)NS(=O)(=O)c1ccccc1-c1cccc2ccccc12` gave an IC50 (Caspase-1 [4]) of 11400 nM.
With `COC(=O)[C@]1(C)CC[C@]2(C)CC[C@]3(C)C4=CC=C5C(=CC(=O)C(O)=C5C)[C@]4(C)CC[C@@]3(C)[C@@H]2C1` [PRISTIMERIN] the IC50 (Caspase-1 [2]) was 56 nM.
In the case of `N#Cc1ccc(-n2sc(-c3ccccc3Cl)cc2=O)cc1`, the inhibition [7] is reported as 89%.
Compound `CC(C)[C@H](NC(=O)CCc1ccccc1)C(=O)N[C@@H](C)C(=O)N[C@@H](CC(=O)O)C(=O)CCc1ccccc1` has a Ki (Caspase-8 [1]) of 610 nM.
Work on `CC(C)C(NC(=O)OCc1ccccc1)C(=O)N[C@@H](C)C(=O)NC(CC(=O)O)C(=O)CNS(=O)(=O)CCc1ccccc1` (some centres not stated) yielded an IC50 (Caspase-1 [4]) of 700 nM and a Ki (Caspase-1 [5]) of 4 nM.
Work on `CC(=O)N[C@@H](Cc1ccc(O)cc1)C(=O)N[C@H](C(=O)N[C@@H](C)C(=O)N[C@@H](CC(=O)O)C(=O)CCCCCc1ccccc1)C(C)C` yielded a Ki (Caspase-8 [1]) of 18.5 nM.
With `CC(=O)C[C@@H](C(=O)CCl)N(C(=O)[C@@H](NC(=O)[C@H](Cc1ccc(O)cc1)NC(C)=O)C(C)C)[C@@H](C)C(N)=O` the mortality [8] was 33%.
Compound `CC(C)[C@H](NC(=O)c1ccc2ccccc2c1)C(=O)N1CCC[C@H]1C(=O)N[C@H](C=O)CC(=O)NS(C)(=O)=O` has an IC50 (Caspase-1 [3]) of 38 nM.
`O=c1cc(-c2ccccc2Cl)sn1-c1ccc(C(F)(F)F)cc1` gave an inhibition [7] of 83%.
In the case of `O=C[C@H](CC(=O)O)NC(=O)CCCCCNC(=O)c1ccc(Nc2cnc3ccccc3n2)cc1`, the Ki (Caspase-1 [9]) is reported as 150 nM.
For `CC(=O)N[C@H](C(=O)N[C@@H](CC(=O)O)C(=O)COC(=O)Cc1c(Cl)cccc1Cl)C(C)C`, the Ki (Caspase-1 [10]) was 80 nM.
In the case of `CCC(C)(C)c1ccc(Oc2ccccc2S(=O)(=O)N[C@H](C=O)CC(=O)O)cc1`, the IC50 (Caspase-1 [4]) is reported as 2200 nM.
Compound `COC(=O)[C@]1(C)CC[C@]2(C)CC[C@]3(C)C4=CCc5c(cc(OC(C)=O)c(OC(C)=O)c5C)[C@]4(C)CC[C@@]3(C)[C@@H]2C1` [PRISTIMEROL DIACETATE] has an IC50 (Caspase-1 [2]) of 79 nM.
Work on `O=C1C[C@H](NC(=O)[C@@H]2CCCN3C(=O)CC[C@H](NC(=O)c4nccc5ccccc45)C(=O)N23)[C@H](O)O1` yielded an IC50 (Caspase-8 [11]) of 0.12 nM, a bioavailability [12] of 4% and an IC50 (Caspase-1 [13]) of 1.3 nM.
`COC(=O)CC(NC(=O)C(NC(=O)OCc1ccccc1)c1ccccc1)C(=O)COC(=O)c1ccccc1` (configuration not stated) showed an IC50 (Caspase-1 [6]) of 5560 nM.
For `O=C[C@H](CC(=O)O)NC(=O)[C@@H]1CCCN2C(=O)CC[C@H](NC(=O)c3ccc(OCC(=O)O)cc3)C(=O)N12`, the Ki (Caspase-1 (Homo sapiens)) was 1 nM.
`C[C@H](NC(=O)C(NC(=O)c1ccc2ccccc2c1)C(=O)O)C(=O)N[C@H](CN=[N+]=[N-])CC(=O)O` (some centres not stated) showed an IC50 (Caspase-1 [4]) of 40 nM.
`CC(=O)N[C@H](C(=O)N[C@@H](CC(=O)O)C(=O)COC(=O)Cc1c(Cl)ccc(Cl)c1Cl)C(C)C` gave a Ki (Caspase-1 [10]) of 113 nM.
With `CC(=O)N[C@@H](Cc1ccc(O)cc1)C(=O)N[C@H](C(=O)N[C@@H](C)C(=O)N[C@@H](CC(=O)O)C(=O)CCCCc1ccccc1)C(C)C` the Ki (Caspase-8 [1]) was 42 nM.
In the case of `CC(C)(NC(=O)CNC(=O)c1ccc2ccccc2c1)C(=O)N[C@H](CN=[N+]=[N-])CC(=O)O`, the IC50 (Caspase-1 [4]) is reported as 7.9 nM.
For `C[C@H](NC(=O)[C@H](CCC(=O)O)NC(=O)OCc1ccccc1)C(=O)NC(CC(=O)O)C(=O)CNS(=O)(=O)CCc1ccccc1` (some centres not stated), the IC50 (Caspase-1 [4]) was 20 nM and the Ki (Caspase-1 [5]) was 20 nM.
Work on `CCC(C)(C)c1ccc(Oc2ccccc2S(=O)(=O)N[C@H](C=O)CC(=O)O)cc1C` yielded an IC50 (Caspase-1 [4]) of 1000 nM.
